Measured values: ChEMBL document CHEMBL1135894, “Design and synthesis of a novel and potent series of inhibitors of cytosolic phospholipase A(2) based on a 1,3-disubstituted propan-2-one skeleton” (J Med Chem, 2002)
pIC50: −log10 of the molar value.

Test system: HL-60
Assay: Inhibition of [3H]arachidonic acid production by stimulated HL60 cells.
Assay type: functional, cell-based
Details: Homo sapiens

`CCCCCCCCCCOc1ccc(OCC(=O)COc2ccc(C(=O)O)cc2)cc1` showed a pIC50 of 5.55.

`CCCCC/C=C\C/C=C\C/C=C\C/C=C\CCCC(=O)C(F)(F)F` [ARACHIDONYL TRIFLUOROMETHYLKETONE] showed a pIC50 of 4.54.
